# From ChEMBL document CHEMBL4765259, “Synthesis and biological evaluation of novel shikonin-benzo[b]furan derivatives as tubulin polymerization inhibitors targeting the colchicine binding site” (Eur J Med Chem, 2020)
# Calls of active or inactive are those of the source. The rule behind the calls is not given here.
# Tests used:
# [1] = Half life in Sprague-Dawley rat at 1.5 mg/kg, iv by UPLC/MS analysis; type: ADME, organism-based; settings: in vivo
# [2] = AUC (0 to infinity) in Sprague-Dawley rat at 1.5 mg/kg, iv by UPLC/MS analysis; type: ADME, organism-based; set-up: time infinity, route intravenous, dose 1.5 mg/kg; settings: in vivo
# [3] = Mean residence time (0 to infinity) in Sprague-Dawley rat at 1.5 mg/kg, iv by UPLC/MS analysis; type: ADME, organism-based; settings: in vivo
# [4] = Apparent volume of distribution in Sprague-Dawley rat at 1.5 mg/kg, iv by UPLC/MS analysis; type: ADME, organism-based; settings: in vivo, read-out: Vz
# HT-29 [5] = experiment: Induction of microtubule disruption in human HT-29 cells at 0.5 uM incubated for 24 hrs by DAPI staining based confocal fluorescence microscopic analysis; type: cell-based
# HT-29 [6] = experiment: Induction of apoptosis in human HT-29 cells assessed as necrotic cells at 0.5 uM measured after 24 hrs by Annexin V-FITC/propidium iodide staining based flow cytometry (reference value: 0.1 %); type: functional
# K562 [7] = experiment: cells; settings: Homo sapiens, K562, 48 h
# Description: Antiproliferative activity against human K562 cells incubated for 48 hrs by MTT assay
# HT-29 [8] = experiment: Induction of apoptosis in human HT-29 cells assessed as early apoptotic cells at 0.5 uM measured after 24 hrs by Annexin V-FITC/propidium iodide staining based flow cytometry (reference value: 1.6 %); type: functional
# K562 [9] = experiment: Antiproliferative activity against drug resistant human K562 cells incubated for 48 hrs by MTT assay; type: functional, cell-based; settings: K562, 48 h
# A549 = experiment: cells; settings: Homo sapiens, A549, 48 h
# HepG2 = experiment: Antiproliferative activity against human HepG2 cells incubated for 48 hrs by MTT assay; type: functional, cell-based; settings: HepG2, 48 h
# HT-29 [10] = experiment: Induction of apoptosis in human HT-29 cells assessed as viable cells at 0.5 uM measured after 24 hrs by Annexin V-FITC/propidium iodide staining based flow cytometry (reference value: 98.3 %); type: functional; settings: read-out: Activity
# HT-29 [11] = experiment: Induction of apoptosis in human HT-29 cells assessed as late apoptotic cells at 1 uM measured after 24 hrs by Annexin V-FITC/propidium iodide staining based flow cytometry (reference value: 0.0 %); type: functional
# HT-29 [12] = experiment: Cell cycle arrest in human HT29 cells assessed as cell accumulation at G1 phase at 1 uM incubated for 24 hrs by propidium iodide staining based flow cytometry (reference value: 69.19 %); type: functional
# HT-29 [13] = experiment: Induction of apoptosis in human HT-29 cells assessed as early apoptotic cells at […] measured after 24 hrs by Annexin V-FITC/propidium iodide staining based flow cytometry (reference value: 1.6 %); type: functional; settings: dose 0.25 µM
# HT-29 [14] = experiment: Cell cycle arrest in human HT29 cells assessed as cell accumulation at G1 phase at […] incubated for 24 hrs by propidium iodide staining based flow cytometry (reference value: 69.19 %); type: functional; settings: dose 0.25 µM
# HT-29 [15] = experiment: Induction of apoptosis in human HT-29 cells assessed as necrotic cells at 1 uM measured after 24 hrs by Annexin V-FITC/propidium iodide staining based flow cytometry (reference value: 0.1 %); type: functional
# HT-29 [16] = experiment: Induction of apoptosis in human HT-29 cells assessed as late apoptotic cells at […] measured after 24 hrs by Annexin V-FITC/propidium iodide staining based flow cytometry (reference value: 0.0 %); type: functional; settings: dose 0.25 µM
# HT-29 [17] = experiment: Induction of apoptosis in human HT-29 cells assessed as necrotic cells at […] measured after 24 hrs by Annexin V-FITC/propidium iodide staining based flow cytometry (reference value: 0.1 %); type: functional; settings: dose 0.25 µM
# HT-29 [18] = experiment: Induction of apoptosis in human HT-29 cells assessed as viable cells at […] measured after 24 hrs by Annexin V-FITC/propidium iodide staining based flow cytometry (reference value: 98.3 %); type: functional; settings: dose 0.25 µM, read-out: Activity
# HT-29 [19] = experiment: Cell cycle arrest in human HT29 cells assessed as cell accumulation at S phase at […] incubated for 24 hrs by propidium iodide staining based flow cytometry (reference value: […] %); type: functional; settings: dose 0.25 µM
# [20] = Antiproliferative activity against human HEK293T cells incubated for 48 hrs by MTT assay; type: cell-based, HEK-293T
# MCF7 [21] = experiment: cells; settings: Homo sapiens, MCF7, 48 h
# Description: Antiproliferative activity against drug-resistant human MCF7 cells incubated for 48 hrs by MTT assay
# HT-29 [22] = experiment: Induction of apoptosis in human HT-29 cells assessed as early apoptotic cells at 1 uM measured after 24 hrs by Annexin V-FITC/propidium iodide staining based flow cytometry (reference value: 1.6 %); type: functional
# HT-29 [23] = experiment: Cell cycle arrest in human HT29 cells assessed as cell accumulation at G1 phase at 0.5 uM incubated for 24 hrs by propidium iodide staining based flow cytometry (reference value: 69.19 %); type: functional
# [24] = Inhibition of tubulin polymerization (unknown origin) measured every 2 mins for 60 mins by spectrophotometric method; set-up: species or system Homo sapiens
# HT-29 [25] = experiment: Antiproliferative activity against human HT29 cells incubated for 48 hrs by MTT assay; type: functional, cell-based; settings: HT-29, 48 h
# HT-29 [26] = experiment: Cell cycle arrest in human HT29 cells assessed as cell accumulation at G2 phase at 1 uM incubated for 24 hrs by propidium iodide staining based flow cytometry (reference value: […]); type: functional
# MCF7 [27] = experiment: cells; settings: Homo sapiens, MCF7, 48 h; remark: listed apart in the source
# HT-29 [28] = experiment: Cell cycle arrest in human HT29 cells assessed as cell accumulation at S phase at 0.5 uM incubated for 24 hrs by propidium iodide staining based flow cytometry (reference value: […] %); type: functional
# HT-29 [29] = experiment: Cell cycle arrest in human HT29 cells assessed as cell accumulation at G2 phase at 0.5 uM incubated for 24 hrs by propidium iodide staining based flow cytometry (reference value: […]); type: functional
# [30] = Antiproliferative activity against human LO2 cells incubated for 48 hrs by MTT assay; type: cell-based, L02
# HT-29 [31] = experiment: Induction of apoptosis in human HT-29 cells assessed as late apoptotic cells at 0.5 uM measured after 24 hrs by Annexin V-FITC/propidium iodide staining based flow cytometry (reference value: 0.0 %); type: functional
# MDA-MB-231 = experiment: cells; settings: Homo sapiens, MDA-MB-231, 48 h
# HT-29 [32] = experiment: Cell cycle arrest in human HT29 cells assessed as cell accumulation at S phase at 1 uM incubated for 24 hrs by propidium iodide staining based flow cytometry (reference value: […] %); type: functional
# HT-29 [33] = experiment: Induction of apoptosis in human HT-29 cells assessed as viable cells at 1 uM measured after 24 hrs by Annexin V-FITC/propidium iodide staining based flow cytometry (reference value: 98.3 %); type: functional; settings: read-out: Activity
# HCT-116 = experiment: cells; settings: Homo sapiens, HCT-116, 48 h
# Description: Antiproliferative activity against human HCT116 cells incubated for 48 hrs by MTT assay
# HT-29 [34] = experiment: Cell cycle arrest in human HT29 cells assessed as cell accumulation at G2 phase at […] incubated for 24 hrs by propidium iodide staining based flow cytometry (reference value: […]); type: functional; settings: dose 0.25 µM
smiles,measurement,setting,value
COc1ccc2cc(C(=O)O[C@H](CC=C(C)C)C3=CC(=O)c4c(O)ccc(O)c4C3=O)oc2c1,half-life,[1],3.81 h
same,AUC(0-inf),[2],2160 ng·h/mL
same,MRT inf,[3],5.12 h
same,Vd,[4],3.35 L/kg
CC(=O)O[C@H]1C(=O)[C@@]2(C)[C@H]([C@H](OC(=O)c3ccccc3)[C@]3(O)C[C@H](OC(=O)[C@H](O)[C@@H](NC(=O)c4ccccc4)c4ccccc4)C(C)=C1C3(C)C)[C@]1(OC(C)=O)CO[C@@H]1C[C@@H]2O,Activity,HT-29 [5],inactive
COc1cc2c(c(OC)c1OC)-c1ccc(OC)c(=O)cc1[C@@H](NC(C)=O)CC2 [COLCHICINE],Activity,HT-29 [6],1.3%
same,IC50,K562 [7],0.44 µM
same,Activity,HT-29 [8],12.1%
same,IC50,K562 [9],6.59 µM
same,IC50,A549,1.17 µM
same,IC50,HepG2,1.47 µM
same,viability at 0.5 µM,HT-29 [10],76.1%
same,Activity,HT-29 [11],16.8%
same,Activity,HT-29 [12],23.93%
same,Activity,HT-29 [13],7.6%
same,Activity,HT-29 [14],57.62%
same,Activity,HT-29 [15],0.4%
same,Activity,HT-29 [16],5.2%
same,Activity,HT-29 [17],0.3%
same,Activity,HT-29 [5],Active
same,viability at […],HT-29 [18],87%
same,Activity,HT-29 [19],24.65%
same,CC50 at 48 h,[20],8.43 µM
same,IC50,MCF7 [21],0.52 µM
same,Activity,HT-29 [22],15.8%
same,Activity,HT-29 [23],27.11%
same,IC50,[24],2.11 µM
same,IC50,HT-29 [25],1.81 µM
same,Activity,HT-29 [26],40.41%
same,IC50,MCF7 [27],0.11 µM
same,Activity,HT-29 [28],54.64%
same,Activity,HT-29 [29],18.25%
same,CC50 at 48 h,[30],9.18 µM
same,Activity,HT-29 [31],10.5%
same,IC50,MDA-MB-231,2.94 µM
same,Activity,HT-29 [32],35.66%
same,viability at 1 µM,HT-29 [33],67.1%
same,IC50,HCT-116,2.13 µM
same,Activity,HT-29 [34],17.73%
